Consider ten compounds from US20240208937A1, “Compounds and Their Use for Treatment of Hemoglobinopathies” (Bristol-Myers Squibb Company, priority 2022, published 2024).

Holding throughout (assay type): cell-based
In test [1] the test system is fetal hemoglobin (HbF) in GCSF-mobilized human CD34+ cells. In words: HbF Induction Assay. As to conditions: 168 h; compound 1 μM, 7 days, erythroid-differentiated human CD34+ cells, flow cytometry; DMSO baseline 15% HbF positive cells. On the procedure: The expansion, differentiation, and maturation of GCSF-mobilized human CD34^+ (STEMCELL Technologies Inc.) cells towards erythroid lineage cells were performed using a two-phase liquid culture model (Moutouh-de Parseval L A, el al. Pomalidomide and lenalidomide regulate erythropoiesis and fetal hemoglobin production in human CD34+ cells. J Clin Invest. 2008 January; 118(1):248-58). In the first phase, GCSF-mobilized human CD34^+ cells were cultured using StemSpan™-XF (STEMCELL Technologies Inc.) media supplemented with 1×BIT 9500, Penicillin-Streptomycin (50 U/mL), 100 ng/mL recombinant human (rh) SCF, 100 ng/mL rh Flt3-L, 20 ng/mL rh IL-3 and 10 ng/mL rh EPO and the growth of cells maintained in exponential phase for 7 days at 37° C. with 5% CO2 to support expansion and progenitor differentiation prior the second phase and treatment with compounds. In the second phase, culture media was changed to StemSpan™-XF media supplemented with 1×BIT 9500, Penicillin-Streptomycin (50 U/mL), 50 ng/mL rh SCF and 40 ng/mL rh EPO to promote further differentiation and maturation of the erythrocytes and to initiate treatment with compounds. Compounds were dispensed in duplicate at a final concentration of 1 μM in a final DMSO amount of 0.1%. Fresh compound was reapplied, and cell density was kept constant every 2 days. After 7 days, the cells were assessed for viability and fetal hemoglobin expression using flow cytometry. For viability analysis, eBioscience™ Fixable Viability Dye eFluor™ 780 (1:1000, eBioscience; Cat #65-0865-14) was added to the cells and kept in the dark for 10 minutes. For analysis of fetal hemoglobin (HbF), cells were fixed and permeabilized using Fixation Buffer (BioLegend; Cat #420801 and Intracellular staining permeabilization buffer (BioLegend, Cat #420201) following manufacturer's instructions. During permeabilization step, cells were stained with PE-labelled Mouse Anti-Human Fetal Hemoglobin (1:10, clone 2D12; BD Biosciences, Cat #BDB560041) incubated at room temperature for 20 minutes and protected from light. PE-labelled Mouse anti-IgG k, (1:10 clone MOPC-21; BD Biosciences, Cat# BDB551436) was used as an isotype control.
Viability, cell count, and fetal hemoglobin (HbF) levels were measured using an Attune NXT flow cytometer (Thermofisher) and the data analyzed using the FCS express software (De Novo Software). In Table 1 below, the effects of compounds of formula (I), formula (I′), formula (II), formula (II′), and formula (III) on % viable cells, viable cell count, on the % HbF positive cells and the median fluorescent intensity (MFI) of the HbF positive cell population compared to the DMSO controls can be viewed. All gates were set using the isotype negative control. The baseline % HbF positive cells for DMSO-treated control cells was 15%. Compounds of formula (I), formula (I′), formula (II), formula (II′), and formula (III) having HbF induction between 66% and 100% are level A. Compounds of formula (I), formula (I′), formula (II), formula (II′), and formula (III) having HbF induction between 33% and 66% are level B. Compounds of formula (I), formula (I′), formula (II), formula (II′), and formula (III) having HbF induction % less than 33% are level C. For certain compounds of formula (I), formula (I′), formula (II), formula (II′), and formula (III) % HbF induction values 0-33% (activity level C), between 33% and 66% (activity level B), and between 67% and 100% (activity level A) are shown in Table 2 below.

Test [2] addresses WIZ (Widely interspaced zinc finger) (Homo sapiens (Human), UniProt O95785+Q96SW2). Briefly: HUDEP-2 WIZ HiBiT degradation assay. Particulars: HUDEP-2 WIZ HiBiT cells, 24 hours treatment, luminescence; for DC50: read-out: WIZ EC50. The method, then: (§1) The HiBiT degradation assay for WIZ and ZBTB7A in HUDEP-2 cells was performed as described below. HUDEP-2 cells engineered to express a HiBiT tag in either the WIZ (Widely interspaced zinc finger) or ZBTB7A (Zinc Finger And BTB Domain Containing 7A) proteins were maintained in low attachment flasks in StemSpan SFEM II media supplemented with Penicillin-Streptomycin (50 U/mL), rhSCF (50 ng/mL), rhEPO (3 IU/mL), dexamethasone (0.4 μg/mL) and doxycycline (1 μg/mL). Prior to start of the assay, cell count and viability were measured by trypan blue exclusion using the Vi-cell XR cell viability analyzer. For the HUDEP-2 WIZ HiBiT assay, cells were transferred to a 50 mL conical and centrifuged at 500 g for five minutes. Cells were resuspended in fresh StemSpan SFEM II media supplemented with Penicillin-Streptomycin (50 U/mL), rhSCF (50 ng/mL), rhEPO (3 IU/mL), dexamethasone (0.4 μg/mL) and doxycycline (1 μg/mL) at a density of 1.0×10^6 cells/ml. Forty microliters of cell suspension was dispensed into 384-well Low Flange White Flat Bottom Polystyrene TC-treated Microplates containing pre-dispensed compounds, using a VIAFLO 384 liquid hander, and placed in a 37° C. incubator with 5% CO2. […] After 24 hours of treatment, 40 μL Nano-Glo HiBiT Lytic Detection System reagent was dispensed into each well using a VIAFLO 384 liquid hander. Plates were incubated for 25 minutes at room temperature and the luminescence was read as relative luminescent units using the EnVision plate reader. EC50 and Y-min values were calculated using curves calculated from dotmatics software after the normalization to the DMSO control of 10 different concentrations: 10, 3.33, 1.11, 0.37, 0.12, 0.04 0.0137, 0.0046, 0.0015 and 0.0005 μM respectively.

For test [3], the target named is ZBTB7A (Zinc Finger And BTB Domain Containing 7A) (Homo sapiens (Human), UniProt O95365+Q96SW2). Briefly: HUDEP-2 ZBTB7A HiBiT degradation assay. Particulars: HUDEP-2 ZBTB7A HiBiT cells, 24 hours treatment, luminescence; for DC50: read-out: ZBTB7A EC50. The method, then:
as §1
For the HUDEP-2 ZBTB7A HiBiT assay, cell count and viability were measured by trypan blue exclusion using the Vi-cell XR cell viability analyzer and the cells were transferred to a 50 mL conical and centrifuged at 500 g for five minutes. Cells were resuspended in fresh IMDM media supplemented with L-Glutamine (1×), Penicillin-Streptomycin (50 U/mL), holo-transferrin (330 μg/mL), heparin (2 IU/mL), r-human Insulin (10 μg/mL), rhEPO (3 IU/mL), rhSCF (100 ng/mL)+Dox (1 μg/mL) and 5% human plasma in low attachment flasks, which were placed in a 37° C. incubator with 5% CO2. After 48 hours, cell count and viability were measured by trypan blue exclusion using the Vi-cell XR cell viability analyzer. The HUDEP-2 ZBTB7A cells were transferred to a 50 mL conical, centrifuged at 500 g for five minutes and resuspended at a density of 1.0×10^6 cells/ml in IMDM media supplemented with L-Glutamine (1×), Penicillin-Streptomycin (50 U/mL), holo-transferrin (330 μg/mL), heparin (2 IU/mL), r-human Insulin (10 μg/mL), rhEPO (3 IU/mL), rhSCF (100 ng/mL)+Dox (1 μg/mL) and 5% human plasma. Forty microliters of cell suspension was dispensed into 384-well Low Flange White Flat Bottom Polystyrene TC-treated Microplates containing pre-dispensed compounds, using a VIAFLO 384 liquid hander, and placed in a 37° C. incubator with 5% CO2. […] After 24 hours of treatment, 40 μL Nano-Glo HiBiT Lytic Detection System reagent was dispensed into each well using a VIAFLO 384 liquid hander. Plates were incubated for 25 minutes at room temperature and the luminescence was read as relative luminescent units using the EnVision plate reader. EC50 and Y-min values were calculated using curves calculated from dotmatics software after the normalization to the DMSO control of 10 different concentrations: 10, 3.33, 1.11, 0.37, 0.12, 0.04 0.0137, 0.0046, 0.0015 and 0.0005 μM respectively.

Chain of ZBTB7A (Zinc Finger And BTB Domain Containing 7A) (O95365 whole entry, the tested form may be a part): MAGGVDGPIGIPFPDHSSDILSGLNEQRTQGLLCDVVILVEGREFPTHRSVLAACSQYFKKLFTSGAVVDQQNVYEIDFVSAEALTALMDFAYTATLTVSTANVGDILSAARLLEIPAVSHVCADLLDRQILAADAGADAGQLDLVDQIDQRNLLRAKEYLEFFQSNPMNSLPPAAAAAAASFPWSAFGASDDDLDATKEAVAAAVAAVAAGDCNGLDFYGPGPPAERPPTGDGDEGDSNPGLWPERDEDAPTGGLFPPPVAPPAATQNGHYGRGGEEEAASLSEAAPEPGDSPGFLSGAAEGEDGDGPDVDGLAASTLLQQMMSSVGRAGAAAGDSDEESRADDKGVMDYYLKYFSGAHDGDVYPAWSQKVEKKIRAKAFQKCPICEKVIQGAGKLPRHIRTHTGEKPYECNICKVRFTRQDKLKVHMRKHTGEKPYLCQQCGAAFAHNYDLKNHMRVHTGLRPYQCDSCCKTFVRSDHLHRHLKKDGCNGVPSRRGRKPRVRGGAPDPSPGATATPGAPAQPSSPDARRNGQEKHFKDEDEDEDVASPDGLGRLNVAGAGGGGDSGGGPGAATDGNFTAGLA
Chain of ZBTB7A (Zinc Finger And BTB Domain Containing 7A) (Q96SW2 whole entry, the tested form may be a part): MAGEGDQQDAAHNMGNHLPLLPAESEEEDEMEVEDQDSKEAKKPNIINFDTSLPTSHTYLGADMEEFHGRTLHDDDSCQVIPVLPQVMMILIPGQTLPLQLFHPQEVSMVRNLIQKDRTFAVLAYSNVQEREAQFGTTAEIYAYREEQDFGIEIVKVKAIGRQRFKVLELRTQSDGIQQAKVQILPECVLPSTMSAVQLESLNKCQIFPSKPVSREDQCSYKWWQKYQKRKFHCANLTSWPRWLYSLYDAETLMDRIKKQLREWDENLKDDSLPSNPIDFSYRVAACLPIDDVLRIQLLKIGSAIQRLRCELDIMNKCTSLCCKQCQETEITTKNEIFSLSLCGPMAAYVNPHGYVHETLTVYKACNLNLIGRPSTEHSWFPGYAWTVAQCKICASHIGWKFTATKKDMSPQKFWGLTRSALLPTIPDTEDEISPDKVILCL
Chain of ZBTB7A (Zinc Finger And BTB Domain Containing 7A) (Q16531 whole entry partner, the tested form may be a part): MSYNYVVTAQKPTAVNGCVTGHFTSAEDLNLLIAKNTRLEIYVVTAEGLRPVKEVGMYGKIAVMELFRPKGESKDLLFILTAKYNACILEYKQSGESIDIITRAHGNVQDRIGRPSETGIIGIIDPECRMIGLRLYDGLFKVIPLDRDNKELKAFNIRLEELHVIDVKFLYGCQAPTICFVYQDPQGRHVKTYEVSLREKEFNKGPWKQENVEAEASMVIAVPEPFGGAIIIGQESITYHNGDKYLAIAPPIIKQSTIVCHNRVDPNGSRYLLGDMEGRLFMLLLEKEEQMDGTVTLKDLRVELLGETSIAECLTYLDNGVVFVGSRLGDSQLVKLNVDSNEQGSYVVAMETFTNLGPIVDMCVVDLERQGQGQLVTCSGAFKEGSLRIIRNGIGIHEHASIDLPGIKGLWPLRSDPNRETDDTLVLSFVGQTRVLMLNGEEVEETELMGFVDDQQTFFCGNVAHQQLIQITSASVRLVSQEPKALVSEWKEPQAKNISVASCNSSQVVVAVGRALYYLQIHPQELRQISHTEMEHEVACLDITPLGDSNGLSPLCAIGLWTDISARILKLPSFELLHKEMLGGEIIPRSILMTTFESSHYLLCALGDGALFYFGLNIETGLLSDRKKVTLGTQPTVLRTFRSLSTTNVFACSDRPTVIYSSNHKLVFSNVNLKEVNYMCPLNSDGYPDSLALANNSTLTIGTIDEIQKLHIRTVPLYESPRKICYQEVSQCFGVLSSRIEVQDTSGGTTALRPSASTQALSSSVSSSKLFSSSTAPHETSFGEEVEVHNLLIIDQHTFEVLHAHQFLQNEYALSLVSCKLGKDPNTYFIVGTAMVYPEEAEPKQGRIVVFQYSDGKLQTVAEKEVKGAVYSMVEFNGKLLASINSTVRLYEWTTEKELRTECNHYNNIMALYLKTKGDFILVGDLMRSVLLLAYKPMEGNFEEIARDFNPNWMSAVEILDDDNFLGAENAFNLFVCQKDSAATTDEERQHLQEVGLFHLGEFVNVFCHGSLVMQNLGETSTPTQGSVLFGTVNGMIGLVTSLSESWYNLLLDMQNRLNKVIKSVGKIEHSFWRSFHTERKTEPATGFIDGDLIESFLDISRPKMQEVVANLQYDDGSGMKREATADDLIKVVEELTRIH
Chain of WIZ (Widely interspaced zinc finger) (O95785 whole entry, the tested form may be a part): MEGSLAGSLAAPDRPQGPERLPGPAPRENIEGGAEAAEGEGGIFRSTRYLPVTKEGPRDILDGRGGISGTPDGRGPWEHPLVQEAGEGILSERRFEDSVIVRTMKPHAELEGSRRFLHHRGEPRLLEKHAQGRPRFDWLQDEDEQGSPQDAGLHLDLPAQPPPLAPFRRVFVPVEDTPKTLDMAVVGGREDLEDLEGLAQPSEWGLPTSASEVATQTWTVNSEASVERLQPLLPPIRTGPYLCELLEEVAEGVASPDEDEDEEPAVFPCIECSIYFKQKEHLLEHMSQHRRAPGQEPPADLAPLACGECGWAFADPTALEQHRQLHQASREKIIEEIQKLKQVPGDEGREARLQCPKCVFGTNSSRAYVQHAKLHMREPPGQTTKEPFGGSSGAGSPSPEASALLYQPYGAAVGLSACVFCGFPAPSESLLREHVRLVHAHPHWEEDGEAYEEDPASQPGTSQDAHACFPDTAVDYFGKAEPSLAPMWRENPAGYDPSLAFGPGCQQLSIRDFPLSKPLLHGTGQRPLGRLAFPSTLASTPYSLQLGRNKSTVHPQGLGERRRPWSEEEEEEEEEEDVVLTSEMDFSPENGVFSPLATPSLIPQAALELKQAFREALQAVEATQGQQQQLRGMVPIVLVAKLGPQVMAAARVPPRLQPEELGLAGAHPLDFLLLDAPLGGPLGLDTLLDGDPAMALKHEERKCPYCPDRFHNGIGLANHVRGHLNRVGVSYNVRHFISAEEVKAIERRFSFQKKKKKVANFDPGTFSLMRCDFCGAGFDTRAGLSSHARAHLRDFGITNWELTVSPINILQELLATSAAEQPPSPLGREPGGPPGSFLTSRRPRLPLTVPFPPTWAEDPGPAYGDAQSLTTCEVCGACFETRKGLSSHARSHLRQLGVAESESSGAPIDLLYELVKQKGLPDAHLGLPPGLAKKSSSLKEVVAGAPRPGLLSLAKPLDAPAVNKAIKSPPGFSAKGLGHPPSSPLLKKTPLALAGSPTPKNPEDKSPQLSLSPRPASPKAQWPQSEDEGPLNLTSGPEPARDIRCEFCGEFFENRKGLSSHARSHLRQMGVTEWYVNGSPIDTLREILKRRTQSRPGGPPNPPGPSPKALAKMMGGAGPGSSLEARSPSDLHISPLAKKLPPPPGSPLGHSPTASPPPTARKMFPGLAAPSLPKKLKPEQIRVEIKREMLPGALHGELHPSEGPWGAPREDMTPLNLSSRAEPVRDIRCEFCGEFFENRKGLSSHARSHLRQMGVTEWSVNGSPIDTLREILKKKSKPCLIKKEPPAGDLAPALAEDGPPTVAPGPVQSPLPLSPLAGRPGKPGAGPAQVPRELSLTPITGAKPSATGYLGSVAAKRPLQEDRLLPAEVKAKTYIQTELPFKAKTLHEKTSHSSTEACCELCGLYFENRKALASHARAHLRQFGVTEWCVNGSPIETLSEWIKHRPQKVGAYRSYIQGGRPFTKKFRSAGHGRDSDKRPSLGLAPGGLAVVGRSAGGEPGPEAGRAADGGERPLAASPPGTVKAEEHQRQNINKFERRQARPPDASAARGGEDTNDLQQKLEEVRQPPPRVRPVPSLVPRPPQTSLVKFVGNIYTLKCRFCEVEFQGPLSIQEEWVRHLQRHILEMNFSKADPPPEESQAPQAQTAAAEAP
Chain of WIZ (Widely interspaced zinc finger) (Q96SW2 whole entry, the tested form may be a part): as the sequence (Q96SW2 whole entry, the tested form may be a part) above
Chain of WIZ (Widely interspaced zinc finger) (Q16531 whole entry partner, the tested form may be a part): as the sequence (Q16531 whole entry partner, the tested form may be a part) above

Turning to `Cc1cc(-c2cc3c(cnn3[C@@H]3CCOC3)cc2Nc2cccc3c2C(=O)N([C@@H]2CCC(=O)NC2=O)C3=O)ccn1` [Compound 52, 2-((R)-2,6-dioxopiperidin-3-yl)-4-((6-(2-methylpyridin-4-yl)-1-((R)-tetrahydrofuran-3-yl)-1H-indazol-5-yl)amino)isoindoline-1,3-dione], the activation at 1 µM in test [1] is 66 to 100%. The values for the EC50 in test [2] and in test [3] were below 0.01 µM and above 0.1 µM, respectively.
In test [1], `O=C1CCC(N2C(=O)c3cccc(Nc4c(Oc5ccccc5Cl)ccc5c4cnn5C4CCOCC4)c3C2=O)C(=O)N1` (stereo not drawn) [Compound 13, 4-((5-(2-chlorophenoxy)-1-(tetrahydro-2H-pyran-4-yl)-1H-indazol-4-yl)amino)-2-(2,6-dioxopiperidin-3-yl)isoindoline-1,3-dione] yielded an activation at 1 µM of 66 to 100%. Besides, the DC50 in test [2] fell in the range of 0.01 to 0.1 µM; in test [3] it was 0.03 to 0.1 µM.
`Cc1cc(-c2cc3c(cnn3C3CCOCC3)cc2Nc2cccc3c2C(=O)N(C2CCC(=O)NC2=O)C3=O)ccn1` (stereo not drawn) [Compound 4, 2-(2,6-dioxopiperidin-3-yl)-4-((6-(2-methylpyridin-4-yl)-1-(tetrahydro-2H-pyran-4-yl)-1H-indazol-5-yl)amino)isoindoline-1,3-dione] displayed an activation at 1 µM in test [1] of 66 to 100%. The figures for the DC50 in test [2] and in test [3] were 0.01 to 0.1 µM and 0.03 to 0.1 µM, respectively.
Turning to `COc1ccc(-c2cc3ncn(C)c3cc2Nc2cccc3c2C(=O)N(C2CCC(=O)NC2=O)C3=O)cc1F` (stereo not drawn) [Compound 5, 2-(2,6-dioxopiperidin-3-yl)-4-((5-(3-fluoro-4-methoxyphenyl)-1-methyl-1H-benzo[d]imidazol-6-yl)amino)isoindoline-1,3-dione], in test [1], the activation at 1 µM was 66 to 100%. Besides, the DC50 in test [2] lay in the range of 0.01 to 0.1 µM; in test [3] it was 0.03 to 0.1 µM.
`Cc1c(Nc2cccc3c2C(=O)N(C2CCC(=O)NC2=O)C3=O)ccc2c1cnn2C1CCOCC1` (stereo not drawn) [Compound 20, 2-(2,6-dioxopiperidin-3-yl)-4-((4-methyl-1-(tetrahydro-2H-pyran-4-yl)-1H-indazol-5-yl)amino)isoindoline-1,3-dione] yielded an activation at 1 µM in test [1] of 33 to 66%. Also, the values for the EC50 in test [2] and in test [3] were below 0.01 µM and above 0.1 µM, respectively.
Regarding `Cc1cc(-c2cc3nc(C)n(C)c3cc2Nc2cccc3c2C(=O)N(C2CCC(=O)NC2=O)C3=O)ccn1` (stereo not drawn) [Compound 1, 4-((1,2-dimethyl-5-(2-methylpyridin-4-yl)-1H-benzo[d]imidazol-6-yl)amino)-2-(2,6-dioxopiperidin-3-yl)isoindoline-1,3-dione], in test [1], the activation at 1 µM was in the range of 66 to 100%. Further, the DC50 in test [2] was 0.01 to 0.1 µM; in test [3], below 0.03 µM.
Compound `CN(C)CCOc1cc(Oc2ccccc2)c(Nc2cccc3c2C(=O)N(C2CCC(=O)NC2=O)C3=O)cn1` (stereo not drawn) [Compound 9, 4-((6-(2-(dimethylamino)ethoxy)-4-phenoxypyridin-3-yl)amino)-2-(2,6-dioxopiperidin-3-yl)isoindoline-1,3-dione] displayed an activation at 1 µM in test [1] of 66 to 100%. For the same compound, in test [2], the EC50 is below 0.01 µM. Further, in test [3], the DC50 was in the range of 0.03 to 0.1 µM.
For the compound `Cc1cc(-c2cc3c(cc2Nc2cccc4c2C(=O)N(C2CCC(=O)NC2=O)C4=O)nc(C)n3C)ccn1` (stereo not drawn) [Compound 23, 4-((1,2-dimethyl-6-(2-methylpyridin-4-yl)-1H-benzo[d]imidazol-5-yl)amino)-2-(2,6-dioxopiperidin-3-yl)isoindoline-1,3-dione], in test [1], the activation at 1 µM was 33 to 66%. In addition, the DC50 in test [2] is above 0.1 µM. For the same compound, in test [3], the EC50 was above 0.1 µM.
In test [1], `Cc1cc(-c2cc3ncn(C4CC4)c3cc2Nc2cccc3c2C(=O)N(C2CCC(=O)NC2=O)C3=O)ccn1` (stereo not drawn) [Compound 2, 4-((1-cyclopropyl-5-(2-methylpyridin-4-yl)-1H-benzo[d]imidazol-6-yl)amino)-2-(2,6-dioxopiperidin-3-yl)isoindoline-1,3-dione] came in with an activation at 1 µM of 66 to 100%. For the same compound, the DC50 in test [2] is below 0.01 µM; in test [3], below 0.03 µM.
The compound `Cc1ncncc1Oc1ccc2c(cnn2C)c1Nc1cccc2c1C(=O)N(C1CCC(=O)NC1=O)C2=O` (stereo not drawn) [Compound 26, 2-(2,6-dioxopiperidin-3-yl)-4-((1-methyl-5-((4-methylpyrimidin-5-yl)oxy)-1H-indazol-4-yl)amino)isoindoline-1,3-dione] came in with an activation at 1 µM in test [1] below 33%. In addition, in test [2], the DC50 is 0.01 to 0.1 µM. This compound also came in with a 50% effective concentration (EC50) in test [3] above 0.1 µM.
